Test results: patent US10111885B2, “Compositions and therapeutic methods for the treatment of complement-associated diseases” (Resverlogix Corp., priority 2015, dated 2018)

Assays:
Type in all cases: in vivo, human
[1] = test system: Complement Factor H - Related Protein 1 (CFHR1); assay: Multi-analyte profiling of plasma, ASSURE trial; details: week 26 vs. baseline, N 17
Description: (§1) In this example, plasma samples from human subjects treated with placebo or RVX000222 was analyzed by Multi-Analyte Profiling (MAP) technology. The method can be used to determine the effect of compounds, including those in the present invention, on the levels of various analytes in plasma (Table 8).

[2] = test system: Complement C3 (C3); assay: Multi-analyte profiling of plasma, ASSURE trial; details: week 26 vs. baseline, N 20
Description: as §1

[3] = test system: Complement Factor H (CFH); assay: Multi-analyte profiling of plasma, ASSURE trial; details: week 26 vs. baseline, N 20
Description: as §1

[4] = test system: Complement C3; assay: Plasma protein quantitation by LC-MRM/MS, ASSURE trial; details: week 26 vs. baseline
Description: (§2) The method can be used to determine the effect of compounds, including those in the present invention, on the levels of various analytes found in plasma.
(§3) Using mass spectrometric methods, including multiple reaction monitoring (MRM) mass spectrometry (MRM-MS), each sample is analyzed for the presence and amount of 43 different plasma proteins. The changes in values for each protein analyte are calculated versus the baseline measure, and statistically significant (p<0.05) and trending (0.10>p>0.05) values are reported (Table 9). Downregulation of expression of components of the complement cascade will result in reduced activity of the pathway and thus will constitute a positive result.

[5] = test system: Complement factor B; assay: as above; details: week 26 vs. baseline, trending p 0.06
Description: as §2, §3

[6] = test system: Complement factor H; assay: as above; details: week 26 vs. baseline
Description: as §2, §3

[7] = test system: Complement component C8 beta chain; assay: as above; details: week 26 vs. baseline
Description: as §2, §3

COc1cc(OC)c2c(=O)[nH]c(-c3cc(C)c(OCCO)c(C)c3)nc2c1 [RVX000222, 2-(4-(2-hydroxyethoxy)-3,5-dimethylphenyl)-5,7-dimethoxyquinazolin-4(3H)-one]
Complement Factor H - Related Protein 1 (CFHR1) Change from baseline [1]: -291.76 µg/mL
Complement Factor H - Related Protein 1 (CFHR1) Percent Change from baseline [1]: −10.75%
Complement C3 (C3) Change from baseline [2]: -0.1 mg/mL
Complement C3 (C3) Percent Change from baseline [2]: −9.28%
Complement Factor H (CFH) Change from baseline [3]: -75.35 µg/mL
Complement Factor H (CFH) Percent Change from baseline [3]: −11.45%
Complement C3 Change from baseline [4]: −34,105 ng/mL
Complement C3 Percent Change from baseline [4]: −3.6%
Complement factor B Change from baseline [5]: −4,259 ng/mL
Complement factor B Percent Change from baseline [5]: −4.2%
Complement factor H Change from baseline [6]: −8,710 ng/mL
Complement factor H Percent Change from baseline [6]: −4.2%
Complement component C8 beta chain Change from baseline [7]: -341 ng/mL
Complement component C8 beta chain Percent Change from baseline [7]: −3.9%
